Assay results taken from ChEMBL document CHEMBL5727173, “Phenyl-(aza)cycloalkyl carboxylic acid GPR120 modulators” (2019).

Target: T1, Free fatty acid receptor 4 (Homo sapiens, UniProt Q5NUL3)
T1 sequence (Q5NUL3 whole entry): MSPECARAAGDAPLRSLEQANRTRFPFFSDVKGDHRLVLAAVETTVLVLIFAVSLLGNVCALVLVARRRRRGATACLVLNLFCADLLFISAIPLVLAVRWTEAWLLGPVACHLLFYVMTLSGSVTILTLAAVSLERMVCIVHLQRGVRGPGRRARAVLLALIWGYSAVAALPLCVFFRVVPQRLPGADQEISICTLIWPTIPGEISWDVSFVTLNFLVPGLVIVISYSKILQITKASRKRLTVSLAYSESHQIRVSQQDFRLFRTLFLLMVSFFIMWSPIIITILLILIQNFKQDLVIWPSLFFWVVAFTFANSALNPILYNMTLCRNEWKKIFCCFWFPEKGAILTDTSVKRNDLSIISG
Experiment: GPR120 pERK AlphaScreen SureFire Assay: The human and mouse GPR120-mediated intracellular phosphorylated ERK assays were also established using CHO-K1 cells stably transfected with the short form of human or mouse GPR120 receptor. Cells were cultured in growth medium consisting of F-12 media (Invitrogen Cat. #11765) with 5% Charcoal/Dextran FBS (Invitrogen Cat. #12676-029) and 500 μg/mL GENETICIN® (Life Technologies Cat. #10131-027). Cells were cryo preserved at a concentration of 3×10^6 cells/mL, in 70% F-12, 20% Charcoal/Dextran FBS and 10% DMSO, and frozen in liquid nitrogen at a low passage number.For the pERK assay, 3×10^6 cells/mL cryopreserved human and mouse cells were thawed rapidly in a 37° C. water bath and added to a T-225 flask containing 50 mL growth medium. The flasks were placed in a tissue culture incubator overnight (37° C., 5% CO2). The next day, cells were harvested with trypsin (Gibco Cat. #25300-054), resuspended in serum-containing growth medium and counted using a Cellometer and volume adjusted to a concentration of 0.5×10^6 cells/mL. Cells were plated into 384-well clear bottom tissue culture plates (BD Cat. #353962) at 50 μL/well, for a density of 25,000 cells/well using a MULTIDROP® and incubated for 16-18 hours (overnight) at 37° C. with 5% CO2. The next day, cells were washed once with 50 μL of PBS without Ca++/Mg++ (Gibco Cat. #14190-036) and serum starved in 25 μL of F-12 media without any serum or antibiotics for 2 hours at 37° C.
Format: cell-based

| SMILES | EC50 [nM] |
| --- | --- |
| O=C(O)CCCCc1ccc(N2CCCC(Oc3ccccc3)C2)cc1 (stereo not given) | 420 |
| O=C(O)CCCCc1ccc(C2CCCC(Nc3ccccc3)C2)cc1 (stereo not given) | 3030 |

Further compounds by falling EC50, results first:

| EC50 [nM] | SMILES |
| --- | --- |
| 3550 | O=C(O)CCCCc1ccc(N2CCCCC(Oc3ccc(F)cc3)C2)cc1 (stereo not given) |
| 2420 | O=C(O)COCCc1ccc(N2CCCC(Oc3ccccc3)C2)cc1 (stereo not given) |
| 780 | O=C(O)CCCCc1ccc(N2CCC[C@@H](Oc3ccccc3)C2)cc1 |
